The record followed here is patent US12490743B2, “Method for treatment of crops” (Wobelea PTY LTD, priority 2019, dated 2025).

A short description of series [1]: pH of products dissolved in tank water. In kind it is physicochemical. As to conditions: 0.8%; for pH after active added in unamended tank water: tank water pH 6.25. The method, then:
The water used throughout the projects is rainwater held in the dark in a plastic tank with stable pH value of 6.25. Controls were set up by replacing actives with tank water only.
Products were dissolved in tank water before application to the agar plants. Tank water (pH 6.25) was adjusted to the respective pH levels prior to adding the actives to determine the change in pH caused by the actives.
Tank water was adjusted to pH 4.0, 5.5, and 7.0 before adding sodium benzoate, sodium metabisulphite and WOB NP1, each at 0.8%.
Tank water was adjusted to pH 7.0, 7.5 and 8.4 before adding sodium benzoate, sodium sulphite and WOB PH1, each at 0.8%.

Series [2] concerns Erwinia carotovora. The series can be described thus: Curative activity: product-soaked discs laid on pathogen lawn on agar. Type of series: cell-based. To be noted: 0.8%, 24 hrs. The method, then: (§1) The fungal and bacterial pathogens Erwinia carotovora (bacterial) and Botrytis cinerea (fungal) were cultured on to Nutrient Agar (NA) and potato dextrose agar (PDA), respectively and incubated at ambient temperature until sporulating or well grown.
(§2) Multiple plates of PDA were inoculated with B. cinerea and allowed to sporulate. Multiple plates of NA were inoculated with E. carotovora and allowed to grow into a thick lawn.
(§3) Plates of PDA and NA were inoculated with fungal spores and bacterial cells, respectively, and allowed to grow into a lawn covering the agar surfaces. Three replicates were used for each product and each pH. Following the results from the preliminary tests, pH 4.0 and 7.0 were selected for all further product pH tests.
(§4) When the lawns were well grown and sporulating in the case of the fungal pathogen, five discs soaked with 200 uL of each product (sodium metabisulphite, sodium benzoate, WOB NP1, sodium sulphite, and WOB PH1) at appropriate pH levels were laid onto the sporulating surface or cell lawn surface for the fungal pathogen and the bacterial pathogen, respectively.
(§5) The plates were incubated at ambient temperature (14-25° C.). Inhibition zones were measured at 24 hours, 48 hours and 7 days.
(§6) Water was used unmodified and agars were made up of the 6 products using them at the pH resulting after dissolving to 0.8% concertation. Curative and preventative plates were prepared as described for Example 4 except that pHs were as dissolved (tank water not adjusted prior to dissolving/diluting product).
(§7) The curative and preventative experiments were repeated according to the method of Example 5 using the liquid WOB NP1 and WOB PH 1 formulations and the solid actives sodium metabisulphite, sodium benzoate and sodium sulphite.
(§8) The liquid WOB formulations were divided into 3 aliquots; one was used immediately—time zero; one stored at ambient temperate (15-27° C.) for one week and experiments repeated; one kept refrigerated (5° C.) for one week and experiments repeated.

Series [3] concerns Botrytis cinerea. Described as above. Type of series: cell-based. As to conditions: 0.8%, 24 hrs. The method, then: as §1, §2, §3, §4, §5, §6, §7, §8
Series [4] deals with Erwinia carotovora. Put plainly: Preventative activity: pathogen plugs laid on agar containing product. As to conditions: Example 5; unadjusted water pH; 0.8%; WOB as liquid formulation; 24 hrs. Type of series: cell-based. The method, then:
as §1, §2
(§9) Plates of agar containing each product (Na metabisulphite, Na Benzoate, WOB NP1 of Example 3) and (Na sulphite, Na Benzoate, WOB PH1) at concentrations equivalent to 0.8% concentration were made up and poured into sterile disposal Petri dishes. Three replicates for each product and pH (4.0 and 7.0) were used.
(§10) Sterile agar discs covered with bacterial cells or fungal hyphae and spores were cut from respective plates of B. cinerea and E. carotovora. Three discs were each laid culture surface down onto the amended agar surface, incubated at ambient temperatures (14-25° C.) and observed for inhibition zones at 24 hours, 48 hours and 7 days.
as §6, §7, §8

For series [5], the system named is Botrytis cinerea. Described as above. In kind it is cell-based. As to conditions: Example 5; unadjusted water pH; 0.8%; WOB as liquid formulation; 24 hrs. The method, then: as §1, §2, §9, §10, §6, §7, §8
Where [6] appears, read: tank water adjusted to pH 4.0 before product added.
The mark [7] stands for this setting: tank water adjusted to pH 5.5 before product added.
Where [8] appears, read: tank water adjusted to pH 7.0 before product added.
The mark [9] stands for this setting: tank water adjusted to pH 7.5 before product added.
[10] abbreviates: tank water adjusted to pH 8.4 before product added.
[11] abbreviates: Example 5, unadjusted water pH, WOB as liquid formulation.

SMILES strings stand for the structures. Several values for one entry are separate records, joined by “and”; a condition that tells them apart may be missing. Equal entries are not always repeated.

Regarding `O=C([O-])c1ccccc1.[Na+]` [Na Benzoate, sodium benzoate], the “pH of water after product added” value in series [1] (setting [6]) was 6.15; in series [1] (setting [7]), 6.34; in series [1] (setting [8]) it was 6.60 and 6.74; in series [1] (setting [9]) it was 6.80; in series [1] (setting [10]), 6.85. Also, the “pH after active added in unamended tank water” value (“pH after active added” below) in series [1] was 4.78. Besides, the “Curative activity on the growth of E. carotovora” value with Erwinia carotovora [2] (Example 4, pH 7.0) is reported as “No effect”. Further, the “Curative activity on the growth of B. cinerea” value in the series with Botrytis cinerea [3] (Example 4, pH 4.0) was “No obvious effect”; with Botrytis cinerea [3] (Example 4, pH 7.0), “No effect”; with Botrytis cinerea [3] (setting [11]), “No obvious effect”. Moreover, in the series on Erwinia carotovora [4], the “Preventative activity on the growth of E. carotovora” value was “No obvious effect”. Also, in the series on Botrytis cinerea [5], the “Preventative activity on the growth of B. cinerea” value is “No obvious effect”.

As to `O=S([O-])S(=O)(=O)[O-].[Na+].[Na+]` [Na metabisulphite, sodium metabisulphite], the “pH of water after product added” value in series [1] (setting [6]) is listed as 3.75; in series [1] (setting [7]) it was 5.52; in series [1] (setting [8]), 6.14. Besides, in series [1], the “pH after active added” value worked out at 4.74. The “Curative activity on the growth of E. carotovora” value is given as “No effect” with Erwinia carotovora [2] (Example 4, pH 4.0) and “No obvious effect” in the series on Erwinia carotovora [2] (setting [11]). Further, the “Curative activity on the growth of B. cinerea” value was “No effect” in the series on Botrytis cinerea [3] (Example 4, pH 4.0) and “No obvious effect” with Botrytis cinerea [3] (setting [11]). Further, the “Preventative activity on the growth of E. carotovora” value with Erwinia carotovora [4] is on record as “No obvious effect”. Further, the “Preventative activity on the growth of B. cinerea” value with Botrytis cinerea [5] was “No obvious effect”.

As to `O=S([O-])[O-].[Na+].[Na+]` [Na sulphite, sodium sulphite], the “pH of water after product added” value in series [1] (setting [8]) was 6.78; in series [1] (setting [9]), 6.78; in series [1] (setting [10]), 6.99. Also, the “pH after active added” value in series [1] is given as 5.24. The “Curative activity on the growth of B. cinerea” value with Botrytis cinerea [3] (Example 4, pH 7.0) was “No effect”.
